Measurements reported in ChEMBL document CHEMBL2150877, “γ-Secretase modulators as potential disease modifying anti-Alzheimer's drugs” (J Med Chem, 2011).

Experiments:
Mus musculus [1] = experiment: Antialzheimer activity in Tg2576 mouse assessed as reduction in plaque load in brain hippocampus at 50 mg/kg/day, po (reference value: 0.5%); format: functional; set-up: scale not given: the % may be the effect or the level left
[2] = Drug level in C57/BL/6 mouse brain at 50 mg/kg, po dosed once daily; format: ADME, organism-based; set-up: dose 50 mg/kg, route oral; conditions: read-out: Drug uptake
Plasma = experiment: Plasma concentration in Tg2576 mouse at 50 mg/kg/day, po; format: ADME, organism-based; set-up: route oral; conditions: in vivo
[3] = Half life in po dosed mouse; format: ADME, organism-based; conditions: in vivo
[4] = Inhibition of gamma secretase in Tg2576 mouse mixed brain cultures assessed as reduction in Abeta40 production
[5] = Clearance in iv dosed mouse; format: ADME, organism-based; conditions: in vivo
[6] = Oral bioavailability in po dosed mouse; format: ADME, organism-based; conditions: in vivo
[7] = Inhibition of gamma secretase in Tg2576 mouse mixed brain cultures assessed as increase in Abeta38 production
[8] = Ratio of drug level in brain to plasma in C57/BL/6 mouse at 50 mg/kg, po dosed once daily; format: ADME, organism-based; set-up: dose 50 mg/kg, route oral; conditions: read-out: BPR
[9] = Plasma concentration in C57/BL/6 mouse at 50 mg/kg, po dosed once daily; format: ADME, organism-based; set-up: dose 50 mg/kg, route oral
[10] = Tmax in po dosed mouse; format: ADME, organism-based; conditions: in vivo
[11] = Inhibition of gamma secretase in Tg2576 mouse mixed brain cultures assessed as reduction in Abeta42 production
Mus musculus [12] = experiment: Antialzheimer activity in Tg2576 mouse assessed as reduction in plaque load in brain cortex at 50 mg/kg/day, po (reference value: 2.8%); format: functional; set-up: scale not given: the % may be the effect or the level left
[13] = Drug level in mouse brain after 6 hrs; format: ADME, tissue-based; conditions: read-out: Drug uptake
Mus musculus [14] = experiment: Antialzheimer activity in TASTPM transgenic mouse model assessed as reduction in brain Abeta42 levels at 100 mg/kg measured after 3 to 15 hrs; format: functional; set-up: scale not given: the % may be the effect or the level left
Mus musculus [15] = experiment: Antialzheimer activity in TASTPM transgenic mouse model assessed as increase in brain Abeta38 levels at 100 mg/kg measured after 3 to 15 hrs; format: functional
[16] = Drug level in mouse plasma after 6 hrs; format: ADME, cell-free
[17] = Inhibition of gamma secretase assessed as reduction in Abeta42 production
Mus musculus [18] = experiment: Antialzheimer activity in transgenic hAPP mouse expressing Swedish and London mutations assessed as reduction in plaque area in brain hippocampus dosed for 6 months; format: functional; set-up: scale not given: the % may be the effect or the level left
[19] = Drug level in mouse plasma dosed for 4 weeks; format: ADME, organism-based
Mus musculus [20] = experiment: Antialzheimer activity in transgenic hAPP mouse expressing Swedish and London mutations assessed as reduction in plaque number in brain hippocampus dosed for 6 months; format: functional; set-up: scale not given: the % may be the effect or the level left
Mus musculus [21] = experiment: Brain penetration in mouse assessed as brain/plasma ratio at 100 or 300 mg/kg/day for 4 to 5 days; format: ADME, organism-based; conditions: in vivo
Mus musculus [22] = experiment: Antialzheimer activity in transgenic hAPP mouse expressing Swedish and London mutations assessed as reduction in plaque number in brain cortex dosed for 6 months; format: functional; set-up: scale not given: the % may be the effect or the level left
[23] = Drug level in mouse brain dosed for 4 weeks; format: ADME, organism-based; conditions: read-out: Drug uptake
[24] = Drug level in brain of Tg2576 mouse expressing human APP Swedish mutant at 60 mg/kg/day after 17 weeks; format: ADME, organism-based; conditions: read-out: Drug uptake
Mus musculus [25] = experiment: Antialzheimer activity in transgenic Alzheimer disease mouse model assessed as increase in recognition index at 125 ppm dosed for 10 months by object recognition memory test (reference value: 48.9%); format: functional
Mus musculus [26] = experiment: Antialzheimer activity in transgenic Alzheimer disease mouse model assessed as increase in recognition index at 375 ppm dosed for 10 months by object recognition memory test (reference value: 48.9%); format: functional
Mus musculus [27] = experiment: Antialzheimer activity in transgenic hAPP mouse expressing Swedish and London mutations assessed as reduction in plaque area in brain cortex dosed for 6 months; format: functional; set-up: scale not given: the % may be the effect or the level left
[28] = Inhibition of gamma secretase expressed in CHO cells assessed as reduction in Abeta42 production; format: cell-based
Mus musculus [29] = experiment: Antialzheimer activity in Tg2576 mouse assessed as reduction in Abeta42 production at 25 mg/kg, po after 18 hrs; format: functional; set-up: scale not given: the % may be the effect or the level left
[30] = Inhibition of gamma secretase expressed in CHO cells assessed as reduction in Abeta40 and Abeta 42 production; format: cell-based
[31] = Drug level in mouse brain at 5 mg/kg, po after 2 hrs; format: ADME, organism-based; set-up: dose 5 mg/kg, route oral; conditions: read-out: Drug uptake
[32] = Ratio of drug level in brain to plasma in mouse at 5 mg/kg, po after 2 hrs; format: ADME, organism-based; set-up: dose 5 mg/kg, route oral; conditions: read-out: BPR
Mus musculus [33] = experiment: Antialzheimer activity in po dosed YAC transgenic mouse model assessed as plasma compound concentration causing reduction in brain Abeta42 levels; format: functional, organism-based
Mus musculus [34] = experiment: Antialzheimer activity in po dosed YAC transgenic mouse model assessed as brain compound concentration causing reduction in brain Abeta42 levels; format: functional, organism-based
Mus musculus [35] = experiment: Antialzheimer activity in po dosed YAC transgenic mouse model assessed as reduction in Abeta42 levels; format: functional
Mus musculus [36] = experiment: Antialzheimer activity in YAC transgenic mouse model assessed as reduction in brain Abeta42 levels at 10 mg/kg, po measured after 7 hrs; format: functional; set-up: scale not given: the % may be the effect or the level left

In the case of `CCc1cc(Nc2nc(-c3ccc(-n4cnc(C)c4)c(F)c3)cs2)c(C)cc1C`, the Activity (Mus musculus [1]) is reported as 1.9%, the AUC [2] is reported as 65000 ng·h/mL and the concentration (Plasma) is reported as 4 µM. It also gave a half-life [3] of 2 h, an IC50 [4] of 90 nM and a clearance [5] of 3.33 mL/min/kg. The bioavailability [6] was 49%, the EC50 [7] was 170 nM and the Kp [8] was 0.93. The AUC [9] was 70000 ng·h/mL, the Tmax [10] was 3 h and the IC50 [11] was 29 nM. For the same compound, the Activity (Mus musculus [12]) was 7.6%.

Work on `CC(C)CC[C@H](c1ccc(C(F)(F)F)nc1)N1CC[C@@H](CC(=O)O)C[C@H]1c1ccc(C(F)(F)F)cc1` yielded a concentration at 6 h [13] of 54.7 µM, an Activity (Mus musculus [14]) of 20% and an Activity (Mus musculus [15]) of 30%. For the same compound, the concentration at 6 h [16] was 32.9 µM and the IC50 [17] was 800 nM.

With `O=C(O)C1(c2ccc(-c3ccc(Cl)c(Cl)c3)c(F)c2)CC1` the Activity (Mus musculus [18]) was 42%, the concentration at 672 h [19] was 580 µM and the Activity (Mus musculus [20]) was 34%. For the same compound, the permeability (Mus musculus [21]) was 5%, the IC50 [17] was 40000 nM and the Activity (Mus musculus [22]) was 28%. The concentration at 672 h [23] was 20 µM, the concentration at 2856 h [24] was 6.4 µM and the Activity (Mus musculus [25]) was 62.2%. It also gave an Activity (Mus musculus [26]) of 64.1% and an Activity (Mus musculus [27]) of 32%.

With `CC(C)=CCCC(C)(O)[C@H]1CC[C@]2(C)[C@@H]1[C@H](O)C[C@@H]1[C@@]3(C)CC[C@H](O[C@@H]4O[C@H](CO)[C@@H](O)[C@H](O)[C@H]4O[C@@H]4O[C@H](CO)[C@@H](O)[C@H](O)[C@H]4O)C(C)(C)[C@@H]3CC[C@]12C` (stereo not given in full) the IC50 [28] was 25000 nM, the Activity (Mus musculus [29]) was 20% and the IC50 [30] was 200000 nM.

For `CC(C)CC[C@H](c1ncc(C(F)(F)F)cn1)N1CC[C@@H](CC(=O)O)C[C@H]1c1ccc(C(F)(F)F)cc1`, the IC50 [17] was 320 nM, the concentration at 2 h [31] was 4.2 µM and the Kp at 2 h [32] was 0.74.

With `CC(C)(C)CC[C@H](CCC(F)(F)F)N1CCC(F)(F)[C@H](CC(=O)O)[C@H]1c1ccc(C(F)(F)F)cc1` the EC50 (Mus musculus [33]) was 3700 nM, the EC50 (Mus musculus [34]) was 1000 nM and the ED50 (Mus musculus [35]) was 5 mg/kg. It also gave an IC50 [17] of 600 nM and an Activity (Mus musculus [36]) of 84%.
